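These data come from cells grown in 96-well plates and exposed to compound for 48 hours at five concentrations. TGI is the concentration that stops growth completely.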
Experiments:
Assay in all cases: inhibition of tumour cell growth, NCI panel, 48 h
786-0 renal = tested on: 786-0 renal
A498 renal = tested on: A498 renal
A549 NSCLC = tested on: A549 NSCLC
ACHN renal = tested on: ACHN renal
BT-549 breast = tested on: BT-549 breast
CAKI-1 renal = tested on: CAKI-1 renal
CCRF-CEM leukemia = tested on: CCRF-CEM leukemia
COLO 205 colon = tested on: COLO 205 colon
DU-145 prostate = tested on: DU-145 prostate
EKVX NSCLC = tested on: EKVX NSCLC
HCC-2998 colon = tested on: HCC-2998 colon
HCT-116 colon = tested on: HCT-116 colon
HCT-15 colon = tested on: HCT-15 colon
HL-60(TB) leukemia = tested on: HL-60(TB) leukemia
HOP-62 NSCLC = tested on: HOP-62 NSCLC
HOP-92 NSCLC = tested on: HOP-92 NSCLC
HS 578T breast = tested on: HS 578T breast
HT29 colon = tested on: HT29 colon
IGROV1 ovarian = tested on: IGROV1 ovarian
K-562 leukemia = tested on: K-562 leukemia
KM12 colon = tested on: KM12 colon
LOX IMVI melanoma = tested on: LOX IMVI melanoma
M14 melanoma = tested on: M14 melanoma
MALME-3M melanoma = tested on: MALME-3M melanoma
MDA-MB-231 breast = tested on: MDA-MB-231 breast
MDA-MB-435 = tested on: MDA-MB-435
MDA-N = tested on: MDA-N
MOLT-4 leukemia = tested on: MOLT-4 leukemia
NCI-H226 lung = tested on: NCI-H226 lung
NCI-H23 lung = tested on: NCI-H23 lung
NCI-H460 lung = tested on: NCI-H460 lung
NCI-H522 lung = tested on: NCI-H522 lung
NCI/ADR-RES ovarian = tested on: NCI/ADR-RES ovarian
OVCAR-3 ovarian = tested on: OVCAR-3 ovarian
OVCAR-4 ovarian = tested on: OVCAR-4 ovarian
OVCAR-5 ovarian = tested on: OVCAR-5 ovarian
OVCAR-8 ovarian = tested on: OVCAR-8 ovarian
PC-3 prostate = tested on: PC-3 prostate
RPMI-8226 leukemia = tested on: RPMI-8226 leukemia
RXF 393 renal = tested on: RXF 393 renal
SF-268 CNS = tested on: SF-268 CNS
SF-295 CNS = tested on: SF-295 CNS
SF-539 CNS = tested on: SF-539 CNS
SK-MEL-2 melanoma = tested on: SK-MEL-2 melanoma
SK-MEL-28 melanoma = tested on: SK-MEL-28 melanoma
SK-MEL-5 melanoma = tested on: SK-MEL-5 melanoma
SK-OV-3 ovarian = tested on: SK-OV-3 ovarian
SN12C renal = tested on: SN12C renal
SNB-19 CNS = tested on: SNB-19 CNS
SNB-75 CNS = tested on: SNB-75 CNS
SR leukemia = tested on: SR leukemia
SW-620 colon = tested on: SW-620 colon
T-47D breast = tested on: T-47D breast
U251 CNS = tested on: U251 CNS
UACC-257 melanoma = tested on: UACC-257 melanoma
UACC-62 melanoma = tested on: UACC-62 melanoma
UO-31 renal = tested on: UO-31 renal
TK-10 renal = tested on: TK-10 renal
MCF7 breast = tested on: MCF7 breast

SMILES: CCOC(=O)C(=Cc1ccccc1Cl)C(=O)OCC
- TGI (786-0 renal): 2.82 µM
- TGI (A498 renal): 5 µM
- TGI (A549 NSCLC): 5.21 µM
- TGI (ACHN renal): 7.62 µM
- TGI (BT-549 breast): 4.59 µM
- TGI (CAKI-1 renal): 4.27 µM
- TGI (CCRF-CEM leukemia): 4.69 µM
- TGI (COLO 205 colon): 3.02 µM
- TGI (DU-145 prostate): 3.96 µM
- TGI (EKVX NSCLC): 7.39 µM
- TGI (HCC-2998 colon): > 10 µM
- TGI (HCT-116 colon): 1.88 µM
- TGI (HCT-15 colon): 4.83 µM
- TGI (HL-60(TB) leukemia): 3.83 µM
- TGI (HOP-62 NSCLC): 4.05 µM
- TGI (HOP-92 NSCLC): 4.96 µM
- TGI (HS 578T breast): > 10 µM
- TGI (HT29 colon): 3.3 µM
- TGI (IGROV1 ovarian): 7.31 µM
- TGI (K-562 leukemia): 5.28 µM
- TGI (KM12 colon): 2.67 µM
- TGI (LOX IMVI melanoma): 4.5 µM
- TGI (M14 melanoma): 2.95 µM
- TGI (MALME-3M melanoma): 3.58 µM
- TGI (MDA-MB-231 breast): 3.39 µM
- TGI (MDA-MB-435): 3.29 µM
- TGI (MDA-N): 4.93 µM
- TGI (MOLT-4 leukemia): 6.27 µM
- TGI (NCI-H226 lung): 5.56 µM
- TGI (NCI-H23 lung): 3.83 µM
- TGI (NCI-H460 lung): 7.22 µM
- TGI (NCI-H522 lung): 4.02 µM
- TGI (NCI/ADR-RES ovarian): 5.97 µM
- TGI (OVCAR-3 ovarian): 2.76 µM
- TGI (OVCAR-4 ovarian): 5.05 µM
- TGI (OVCAR-5 ovarian): 4.13 µM
- TGI (OVCAR-8 ovarian): 2.12 µM
- TGI (PC-3 prostate): 4.3 µM
- TGI (RPMI-8226 leukemia): 4.87 µM
- TGI (RXF 393 renal): 3.78 µM
- TGI (SF-268 CNS): 6.05 µM
- TGI (SF-295 CNS): 6.31 µM
- TGI (SF-539 CNS): 4.13 µM
- TGI (SK-MEL-2 melanoma): 4.59 µM
- TGI (SK-MEL-28 melanoma): 3.53 µM
- TGI (SK-MEL-5 melanoma): 3.6 µM
- TGI (SK-OV-3 ovarian): > 10 µM
- TGI (SN12C renal): 3.91 µM
- TGI (SNB-19 CNS): 3.53 µM
- TGI (SNB-75 CNS): 0.617 µM
- TGI (SR leukemia): > 10 µM
- TGI (SW-620 colon): 2.6 µM
- TGI (T-47D breast): 8.86 µM
- TGI (U251 CNS): 3.07 µM
- TGI (UACC-257 melanoma): 3.21 µM
- TGI (UACC-62 melanoma): 3.67 µM
- TGI (UO-31 renal): 3.2 µM

SMILES: CC(C)C[C@@H](NC(=O)[C@@H](Cc1cccc2ccccc12)NC(=O)N1CCOCC1)B(O)O
- TGI (A498 renal): 93.8 µM
- TGI (A549 NSCLC): > 100 µM
- TGI (ACHN renal): > 100 µM
- TGI (BT-549 breast): > 100 µM
- TGI (CAKI-1 renal): > 100 µM
- TGI (COLO 205 colon): > 100 µM
- TGI (DU-145 prostate): > 100 µM
- TGI (HCC-2998 colon): > 100 µM
- TGI (HCT-116 colon): > 100 µM
- TGI (HCT-15 colon): > 100 µM
- TGI (HL-60(TB) leukemia): > 100 µM
- TGI (HOP-62 NSCLC): > 100 µM
- TGI (HOP-92 NSCLC): > 100 µM
- TGI (HS 578T breast): > 100 µM
- TGI (HT29 colon): > 100 µM
- TGI (IGROV1 ovarian): > 100 µM
- TGI (K-562 leukemia): > 100 µM
- TGI (KM12 colon): > 100 µM
- TGI (LOX IMVI melanoma): > 100 µM
- TGI (M14 melanoma): 78.7 µM
- TGI (MDA-MB-231 breast): > 100 µM
- TGI (MDA-MB-435): 42.9 µM
- TGI (MDA-N): 41.8 µM
- TGI (MOLT-4 leukemia): 96.5 µM
- TGI (NCI-H226 lung): 36.8 µM
- TGI (NCI-H23 lung): > 100 µM
- TGI (NCI-H460 lung): > 100 µM
- TGI (NCI/ADR-RES ovarian): > 100 µM
- TGI (OVCAR-3 ovarian): 85.8 µM
- TGI (OVCAR-4 ovarian): > 100 µM
- TGI (OVCAR-5 ovarian): > 100 µM
- TGI (OVCAR-8 ovarian): > 100 µM
- TGI (PC-3 prostate): > 100 µM
- TGI (RPMI-8226 leukemia): > 100 µM
- TGI (SF-268 CNS): > 100 µM
- TGI (SF-539 CNS): > 100 µM
- TGI (SK-MEL-2 melanoma): > 100 µM
- TGI (SK-MEL-28 melanoma): 64.1 µM
- TGI (SN12C renal): > 100 µM
- TGI (SNB-19 CNS): > 100 µM
- TGI (SR leukemia): > 100 µM
- TGI (T-47D breast): > 100 µM
- TGI (TK-10 renal): 90.7 µM
- TGI (U251 CNS): > 100 µM
- TGI (UACC-257 melanoma): > 100 µM
- TGI (UACC-62 melanoma): > 100 µM
- TGI (UO-31 renal): > 100 µM

SMILES: NC(=S)Nc1[nH]c(=S)nc2[nH]ccc12
- TGI (786-0 renal): > 100 µM
- TGI (A498 renal): > 100 µM
- TGI (A549 NSCLC): > 100 µM
- TGI (ACHN renal): > 100 µM
- TGI (BT-549 breast): > 100 µM
- TGI (CAKI-1 renal): > 100 µM
- TGI (CCRF-CEM leukemia): > 100 µM
- TGI (COLO 205 colon): > 100 µM
- TGI (DU-145 prostate): > 100 µM
- TGI (EKVX NSCLC): > 100 µM
- TGI (HCT-116 colon): > 100 µM
- TGI (HCT-15 colon): > 100 µM
- TGI (HL-60(TB) leukemia): 53.2 µM
- TGI (HOP-62 NSCLC): > 100 µM
- TGI (HOP-92 NSCLC): > 100 µM
- TGI (HS 578T breast): > 100 µM
- TGI (HT29 colon): > 100 µM
- TGI (IGROV1 ovarian): > 100 µM
- TGI (K-562 leukemia): > 100 µM
- TGI (KM12 colon): > 100 µM
- TGI (LOX IMVI melanoma): > 100 µM
- TGI (M14 melanoma): > 100 µM
- TGI (MCF7 breast): > 100 µM
- TGI (MDA-MB-231 breast): > 100 µM
- TGI (MDA-MB-435): > 100 µM
- TGI (MDA-N): > 100 µM
- TGI (MOLT-4 leukemia): > 100 µM
- TGI (NCI-H226 lung): > 100 µM
- TGI (NCI-H23 lung): > 100 µM
- TGI (NCI-H460 lung): > 100 µM
- TGI (NCI/ADR-RES ovarian): > 100 µM
- TGI (OVCAR-3 ovarian): 94.3 µM
- TGI (OVCAR-5 ovarian): > 100 µM
- TGI (OVCAR-8 ovarian): > 100 µM
- TGI (PC-3 prostate): > 100 µM
- TGI (RPMI-8226 leukemia): > 100 µM
- TGI (SF-268 CNS): > 100 µM
- TGI (SF-295 CNS): > 100 µM
- TGI (SF-539 CNS): > 100 µM
- TGI (SK-MEL-2 melanoma): > 100 µM
- TGI (SK-MEL-28 melanoma): > 100 µM
- TGI (SK-MEL-5 melanoma): > 100 µM
- TGI (SK-OV-3 ovarian): > 100 µM
- TGI (SN12C renal): > 100 µM
- TGI (SNB-19 CNS): > 100 µM
- TGI (SNB-75 CNS): 62.9 µM
- TGI (SR leukemia): > 100 µM
- TGI (SW-620 colon): > 100 µM
- TGI (T-47D breast): > 100 µM
- TGI (TK-10 renal): > 100 µM
- TGI (U251 CNS): > 100 µM
- TGI (UACC-257 melanoma): > 100 µM
- TGI (UACC-62 melanoma): > 100 µM
- TGI (UO-31 renal): > 100 µM

From PubChem BioAssay (NCI)
